Assay results from patent US20170312260A1 (LAUNX BIOMEDICAL CO., LTD., priority 2014, published 2017).
Where “and” joins values, the source holds several entries; their conditions need not be identical. Equal entries are not always repeated. Where two headings read alike, the source gives them in different places.

Experiments:
[1] = tested on: gastric cancer cells (AGS); test: Animal model test, subcutaneous tumor in nude mice; assay type: in vivo, female mice (BALB/cAnN.Cg-Foxn1^nu/CrlNarl); conditions: for tumor volume growth, average / tumor volume, average: average of mice; for tumor longest length / tumor volume / tumor volume growth / tumor width: single mice A-C
Experimental: Animal Model Test of […] with Dose 100 mg/kg/Day and 200 mg/kg/day
In this invention, the female mice were (BALB/cAnN.Cg-Foxn1^nu/CrlNarl) purchased from National Laboratory Animal Center (Taiwan)). The weight of the mice were 21±1 g. These mice were subcutaneously injected with gastric cancer cells (AGS) and then put these mice into different cages at random. The drug test experiment was divided into three groups, include “normal control group”, “low dose group (100 mg/kg/day)”, and “high dose group (200 mg/kg/day)”. These mice were then injected test drug intraperitoneally once daily […]. The tumor sizes and body weight were measured twice a week. The tumor sizes were measured and calculated by formula: (L×W^2)/2. L represents the tumor longest length. W represents the tumor shortest diameter.

[2] = tested on: pancreatic cancer cell line BxPC-3; test: WST-1 cell viability analysis, BxPC-3; assay type: cell-based; conditions: Homo sapiens, BXPC-3, 10 μM, 72 hours, read-out: viability (survival rate) of BxPC-3 cells
Experimental: (§1) The cell numbers were counted and reseed as 2×10^6 in cell culture plate/flask. Then, the culture medium were added to a volume of 10 ml, and the cells were cultured for 2-3 days. Then, the cells were suspended for loading into 96-well plates. The number of cells was 3000 and the volume of the culture medium was 100 μl each well.
(§2) Removing the original culture medium from 96-well plate. Then add 100 μl of commercially drug at a concentration of 10 μM per well. After 72 hours, add the diluted WST-1 reagent to the well with 100 μl/well, and the diluted WST-1 reagent was acquired from the dilution of 9:1 medium and WST-1 stock reagent. Finally, the total volume of each well was 200 μl/well. Culture the 96-well plate at 37° C. for 30 to 90 minutes. Detecting and calculate the survival rate of each cancer cells with an ELISA reader at OD450 nm.

[3] = tested on: bladder cancer cell line TSGH; test: WST-1 cell viability analysis, TSGH; assay type: cell-based; conditions: 72 hours, read-out: viability (survival rate) of TSGH cells
Experimental: as §1, §2

[4] = tested on: bladder cancer cell line T24; test: WST-1 cell viability analysis, T24; assay type: cell-based; conditions: Homo sapiens
Experimental: as §1
as §2, with “Culture the 96-well plate at 37° C. for 30 to 90 minutes.” left out

cancers cell lines = test: Inhibition test on all kinds of cancer cell lines (overall statement); assay type: cell-based; conditions: several / various cancer cell lines, Table 18, FIG. 1
Experimental: as §1, §2
(§3) As a result in the experiments of the present invention.

[5] = tested on: H1650 (lung adenocarcinoma); test: WST-1 cell viability analysis, H1650; assay type: cell-based; conditions: Homo sapiens
Experimental: as §1, §2

cervical cancer cells = test: Summary of cell viability, cervical cancer; assay type: cell-based; conditions: 72 hours, summary for cervical cancer, read-out: Inhibitory effect, cervical cancer
Experimental: as §1, §2, §3

[6] = tested on: HepG2 (hepatocellular carcinoma); test: WST-1 cell viability analysis, HepG2; assay type: cell-based; conditions: Homo sapiens, HepG2, 10 μM, 72 hours, read-out: viability (survival rate) of HepG2 cells
[7] = tested on: ovarian cancer cell line TOV-21G; test: WST-1 cell viability analysis, TOV-21G; assay type: cell-based; conditions: Homo sapiens, TOV21G
Experimental: as §1, §2

[8] = tested on: A375 (amelanotic melanoma); test: WST-1 cell viability analysis, A375; assay type: cell-based; conditions: Homo sapiens, A-375, 10 μM, 72 hours, read-out: viability (survival rate) of A375 cells
[9] = high dose (200 mg/kg/day) i.p., Fifth measurement
[10] = high dose (200 mg/kg/day) i.p., First measurement
[11] = high dose (200 mg/kg/day) i.p., First measurement, 200 mg/kg/day
[12] = high dose (200 mg/kg/day) i.p., Fourth measurement
[13] = high dose (200 mg/kg/day) i.p., Second measurement
[14] = high dose (200 mg/kg/day) i.p., Second measurement, 200 mg/kg/day
[15] = high dose (200 mg/kg/day) i.p., Third measurement
[16] = low dose (100 mg/kg/day) i.p., Fifth measurement
[17] = low dose (100 mg/kg/day) i.p., First measurement
[18] = low dose (100 mg/kg/day) i.p., First measurement, 100 mg/kg/day
[19] = low dose (100 mg/kg/day) i.p., Fourth measurement
[20] = low dose (100 mg/kg/day) i.p., Second measurement
[21] = low dose (100 mg/kg/day) i.p., Second measurement, 100 mg/kg/day
[22] = low dose (100 mg/kg/day) i.p., Third measurement
[23] = low dose (100 mg/kg/day) i.p., Third measurement, 100 mg/kg/day

For `CC1=C(C(=O)OC(C)C)C(c2cccc([N+](=O)[O-])c2)C(C(=O)OC2CN(C(c3ccccc3)c3ccccc3)C2)=C(N)N1` (stereo not drawn) [Azelnidipine], the “tumor volume growth, average” value [1, 9] was 0 mm^3, the “tumor volume, average” value [1, 9] was 0 mm^3 and the tumor longest length [1, 9] was 0 mm. For the same compound, the tumor volume [1, 9] was 0 mm^3, the tumor volume growth [1, 9] was 0 mm^3 and the tumor width [1, 9] was 0 mm. The “tumor volume growth, average” value [1, 10] was 25.67 mm^3, the “tumor volume, average” value [1, 10] was 25.67 mm^3 and the tumor longest length [1, 11] was 4 mm and 6 mm. The tumor volume [1, 11] was 18 mm^3 and 27 mm^3 and 32 mm^3, the tumor volume growth [1, 11] was 18 mm^3 and 27 mm^3 and 32 mm^3 and the tumor width [1, 11] was 3 mm and 4 mm. The “tumor volume growth, average” value [1, 12] was −50 mm^3, the “tumor volume, average” value [1, 12] was 0 mm^3 and the tumor longest length [1, 12] was 0 mm. The tumor volume [1, 12] was 0 mm^3, the tumor width [1, 12] was 0 mm and the “tumor volume growth, average” value [1, 13] was 57.67 mm^3. The “tumor volume, average” value [1, 13] was 83.33 mm^3, the tumor width [1, 13] was 5 mm and the tumor longest length [1, 14] was 7 mm and 6 mm. The tumor volume [1, 14] was 87.5 mm^3 and 75 mm^3, the tumor volume growth [1, 14] was 69.5 mm^3 and 48 mm^3 and 55.5 mm^3 and the “tumor volume growth, average” value [1, 15] was −33.3333 mm^3. The “tumor volume, average” value [1, 15] was 50 mm^3, the “inhibition of tumor growth, high dose compared with low dose (in words)” value ([1]; high dose, FIG. 3) was “better effect to inhibit tumor growth” and the “tumor volume growth, average” value [1, 16] was 2.667 mm^3. The “tumor volume, average” value [1, 16] was 22 mm^3, the “tumor volume growth, average” value [1, 17] was 176.3333 mm^3 and the “tumor volume, average” value [1, 17] was 176.3333 mm^3. For the same compound, the tumor longest length [1, 18] was 8 mm and 6 mm and 7 mm, the tumor width [1, 18] was 8 mm and 7 mm and 6 mm and the “tumor volume growth, average” value [1, 19] was −88 mm^3. The “tumor volume, average” value [1, 19] was 19.33 mm^3, the “tumor volume growth, average” value [1, 20] was −77.5 mm^3 and the “tumor volume, average” value [1, 20] was 98.83 mm^3. For the same compound, the tumor longest length [1, 21] was 7 mm and 6 mm and 5 mm, the tumor width [1, 21] was 6 mm and 5 mm and the “tumor volume growth, average” value [1, 22] was 0 mm^3. For the same compound, the “tumor volume, average” value [1, 22] was 98.83 mm^3, the tumor volume growth [1, 22] was 0 mm^3 and the tumor longest length [1, 23] was 7 mm and 6 mm and 5 mm. For the same compound, the tumor width [1, 23] was 6 mm and 5 mm, the “inhibition effect on tumor cells (in words)” value ([1]; low dose and high dose, FIG. 2) was “significant inhibition effect” and the “tumor volume (in words)” value ([1]; low dose and high dose, FIG. 3) was “reduce the tumor volume”. For the same compound, the “tumor volume growth (in words)” value ([1]; low dose and high dose, FIG. 3) was “effectively slow down the tumor volume growth”, the viability at 10 µM ([2]; run 3-4-30 min) was 77.5% and the viability at 10 µM ([2]; run 3-7-3-30 min) was 79.9%. For the same compound, the viability at 10 µM ([2]; run 3-7-4-30 min) was 51%, the viability at 10 µM ([2]; run 3-7-7-30 min) was 50% and the viability at 10 µM ([3]; run 0510-10 min) was 151%. It also gave a viability at 10 µM ([3]; run 0512-10 min) of 117%, a viability at 10 µM ([3]; run 0515-10 min) of 72% and a viability at 10 µM ([3]; run 0517-10 min) of 120%. It also gave a viability at 10 µM ([4]; T-24, 10 μM, 72 hours, run 1-30 min, read-out: viability (survival rate) of T24 cells) of 110%, a viability at 10 µM ([4]; T-24, 10 μM, 72 hours, run 2-20 min, read-out: viability (survival rate) of T24 cells) of 75.3% and a viability at 10 µM ([4]; T-24, 10 μM, 72 hours, run 3-20 min, read-out: viability (survival rate) of T24 cells) of 30.4%. The viability at 10 µM ([4]; T-24, 10 μM, 72 hours, run 4-20 min, read-out: viability (survival rate) of T24 cells) was 102%, the viability at 10 µM ([4]; T-24, 72 h, 10 μM, average of 4 tests, read-out: average viability of T24 cells) was 79.5% and the “inhibitory effect on cancer cell lines (in words)” value (cancers cell lines) was “significant inhibitory effect”. The viability at 10 µM ([5]; NCI-H1650, 10 μM, 72 hours, run 1-10 min, read-out: viability (survival rate) of H1650 cells) was 28.8%, the viability at 10 µM ([5]; NCI-H1650, 10 μM, 72 hours, run 2-20 min, read-out: viability (survival rate) of H1650 cells) was 26.5% and the viability at 10 µM ([5]; NCI-H1650, 10 μM, 72 hours, run 3-20 min, read-out: viability (survival rate) of H1650 cells) was 40.5%. It also gave a viability at 10 µM ([5]; NCI-H1650, 10 μM, 72 hours, run 4-20 min, read-out: viability (survival rate) of H1650 cells) of 62.7%, a viability at 10 µM ([5]; NCI-H1650, 72 h, 10 μM, average of 4 tests, read-out: Average viability of H1650 cells) of 39.7% and a viability at 10 µM (cervical cancer cells) of 87%. For the same compound, the viability at 10 µM ([6]; run 0524-20 min) was 110%, the viability at 10 µM ([6]; run 0526-20 min) was 87.2% and the viability at 10 µM ([6]; run 0529-20 min) was 112%. For the same compound, the viability at 10 µM ([6]; run 0531-20 min) was 93.7%, the viability at 10 µM ([7]; 72 h, average of 4 tests, read-out: average viability of TOV-21G cells) was 27.2% and the viability at 10 µM ([7]; 72 hours, run 4-30 min, read-out: viability (survival rate) of TOV-21G cells) was 60.1%. For the same compound, the viability at 10 µM ([7]; 72 hours, run 7-3-30 min, read-out: viability (survival rate) of TOV-21G cells) was 15.6%, the viability at 10 µM ([7]; 72 hours, run 7-4-30 min, read-out: viability (survival rate) of TOV-21G cells) was 13.3% and the viability at 10 µM ([7]; 72 hours, run 7-7-30 min, read-out: viability (survival rate) of TOV-21G cells) was 19.6%. The viability at 10 µM ([8]; run 0602-30 min) was 124%, the viability at 10 µM ([8]; run 0607-10 min) was 76% and the viability at 10 µM ([8]; run 0609-10 min) was 105%.
